From ChEMBL document CHEMBL4840313, “Bioisosteric replacements of the indole moiety for the development of a potent and selective PI3Kδ inhibitor: Design, synthesis and biological evaluation” (Eur J Med Chem, 2021)
Values belong to the compound of their own block, whether it stands above or below them.

What was measured:
[1] = target: T1, Phosphatidylinositol 4,5-bisphosphate 3-kinase catalytic subunit delta isoform (Homo sapiens, UniProt O00329); assay: Inhibition of PI3Kdelta (unknown origin) using PIP2 as substrate in presence of ATP measured after 60 mins by ADP-Glo assay
T1 sequence (O00329 whole entry): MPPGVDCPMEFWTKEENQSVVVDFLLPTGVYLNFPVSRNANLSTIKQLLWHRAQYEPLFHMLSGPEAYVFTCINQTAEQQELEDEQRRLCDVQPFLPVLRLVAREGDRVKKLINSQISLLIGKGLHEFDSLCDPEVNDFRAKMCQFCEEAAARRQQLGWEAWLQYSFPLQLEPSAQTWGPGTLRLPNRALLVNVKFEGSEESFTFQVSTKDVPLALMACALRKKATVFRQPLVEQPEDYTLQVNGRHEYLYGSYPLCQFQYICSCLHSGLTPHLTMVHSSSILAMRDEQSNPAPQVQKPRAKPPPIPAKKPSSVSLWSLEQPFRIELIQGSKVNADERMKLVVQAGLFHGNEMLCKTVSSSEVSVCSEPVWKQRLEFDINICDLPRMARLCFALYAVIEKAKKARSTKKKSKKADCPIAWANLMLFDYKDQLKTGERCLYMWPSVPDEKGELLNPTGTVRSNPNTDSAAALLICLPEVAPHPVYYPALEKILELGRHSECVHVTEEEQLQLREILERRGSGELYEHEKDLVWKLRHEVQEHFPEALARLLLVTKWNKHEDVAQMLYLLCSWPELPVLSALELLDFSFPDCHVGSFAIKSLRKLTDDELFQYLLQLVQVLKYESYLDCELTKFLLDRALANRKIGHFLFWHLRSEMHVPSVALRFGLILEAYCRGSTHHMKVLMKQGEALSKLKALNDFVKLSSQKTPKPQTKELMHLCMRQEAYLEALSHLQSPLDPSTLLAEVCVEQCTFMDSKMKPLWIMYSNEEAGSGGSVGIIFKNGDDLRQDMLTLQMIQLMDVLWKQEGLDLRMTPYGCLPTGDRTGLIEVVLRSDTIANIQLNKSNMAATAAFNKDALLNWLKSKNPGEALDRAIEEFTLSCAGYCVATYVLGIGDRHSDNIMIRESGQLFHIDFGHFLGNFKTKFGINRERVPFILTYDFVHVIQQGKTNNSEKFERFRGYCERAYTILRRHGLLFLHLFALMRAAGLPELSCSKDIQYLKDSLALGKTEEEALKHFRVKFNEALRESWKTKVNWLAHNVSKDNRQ

[2] = target: Phosphatidylinositol 4,5-bisphosphate 3-kinase catalytic subunit beta isoform (Homo sapiens, UniProt P42338); assay: Inhibition of PI3Kbeta (unknown origin) using PIP2 as substrate in presence of ATP measured after 60 mins by ADP-Glo assay
[3] = target: Phosphatidylinositol 4,5-bisphosphate 3-kinase catalytic subunit alpha isoform (Homo sapiens, UniProt P42336); assay: Inhibition of PI3Kalpha (unknown origin) using PIP2 as substrate in presence of ATP measured after 60 mins by ADP-Glo assay
[4] = target: Phosphatidylinositol 4,5-bisphosphate 3-kinase catalytic subunit gamma isoform (Homo sapiens, UniProt P48736); assay: Inhibition of PI3Kgamma (unknown origin) using PIP2 as substrate in presence of ATP measured after 60 mins by ADP-Glo assay
[5] = Induction of apoptosis in human MOLM16 cells assessed as early apoptotic cells at 5 uM incubated for 48 hrs by Annexin V and propidium iodide Staining based assay (reference value: 16.4 %); type: functional, MOLM-16
[6] = Induction of cell cycle arrest in human MOLM16 cells assessed as accumulation at S phase at 1 uM incubated for 24 hrs by propidium iodide /RNase staining based flow cytometry(Rvb =31.8 %); type: functional, MOLM-16
[7] = Induction of cell cycle arrest in human MOLM16 cells assessed as accumulation at G2 phase at 5 uM incubated for 24 hrs by propidium iodide /RNase staining based flow cytometry(Rvb =14.7 %); type: functional, MOLM-16
[8] = Induction of cell cycle arrest in human MOLM16 cells assessed as accumulation at S phase at 2 uM incubated for 24 hrs by propidium iodide /RNase staining based flow cytometry(Rvb =31.8 %); type: functional, MOLM-16
[9] = Induction of apoptosis in human MOLM16 cells assessed as late apoptotic cells at 1 uM incubated for 48 hrs by Annexin V and propidium iodide Staining based assay (reference value: 6.77 %); type: functional, MOLM-16
[10] = Induction of apoptosis in human MOLM16 cells assessed as viable cells at 2 uM incubated for 48 hrs by Annexin V and propidium iodide Staining based assay (reference value: 76.3 %); type: functional, MOLM-16; settings: read-out: Activity
[11] = Induction of cell cycle arrest in human MOLM16 cells assessed as accumulation at subG1 phase at 1 uM incubated for 24 hrs by propidium iodide /RNase staining based flow cytometry(Rvb =4.02 %); type: functional, MOLM-16
[12] = Induction of apoptosis in human MOLM16 cells assessed as necrotic cells at 1 uM incubated for 48 hrs by Annexin V and propidium iodide Staining based assay (reference value: 0.44 %); type: functional, MOLM-16
[13] = Induction of apoptosis in human MOLM16 cells assessed as late apoptotic cells at 2 uM incubated for 48 hrs by Annexin V and propidium iodide Staining based assay (reference value: 6.77 %); type: functional, MOLM-16
[14] = Induction of apoptosis in human MOLM16 cells assessed as early apoptotic cells at 2 uM incubated for 48 hrs by Annexin V and propidium iodide Staining based assay (reference value: 16.4 %); type: functional, MOLM-16
[15] = Induction of apoptosis in human MOLM16 cells assessed as necrotic cells at 5 uM incubated for 48 hrs by Annexin V and propidium iodide Staining based assay (reference value: 0.44 %); type: functional, MOLM-16
[16] = Induction of apoptosis in human MOLM16 cells assessed as late apoptotic cells at 5 uM incubated for 48 hrs by Annexin V and propidium iodide Staining based assay (reference value: 6.77 %); type: functional, MOLM-16
[17] = Induction of apoptosis in human MOLM16 cells assessed as viable cells at 1 uM incubated for 48 hrs by Annexin V and propidium iodide Staining based assay (reference value: 76.3 %); type: functional, MOLM-16; settings: read-out: Activity
[18] = Induction of cell cycle arrest in human MOLM16 cells assessed as accumulation at subG1 phase at 2 uM incubated for 24 hrs by propidium iodide /RNase staining based flow cytometry(Rvb =4.02 %); type: functional, MOLM-16
[19] = Induction of cell cycle arrest in human MOLM16 cells assessed as accumulation at G2 phase at 2 uM incubated for 24 hrs by propidium iodide /RNase staining based flow cytometry(Rvb =14.7 %); type: functional, MOLM-16
[20] = Induction of cell cycle arrest in human MOLM16 cells assessed as accumulation at S phase at 5 uM incubated for 24 hrs by propidium iodide /RNase staining based flow cytometry(Rvb =31.8 %); type: functional, MOLM-16
[21] = Induction of cell cycle arrest in human MOLM16 cells assessed as accumulation at G2 phase at 1 uM incubated for 24 hrs by propidium iodide /RNase staining based flow cytometry(Rvb =14.7 %); type: functional, MOLM-16
[22] = Induction of cell cycle arrest in human MOLM16 cells assessed as accumulation at G1 phase at 1 uM incubated for 24 hrs by propidium iodide /RNase staining based flow cytometry(Rvb =46.8 %); type: functional, MOLM-16
[23] = Induction of cell cycle arrest in human MOLM16 cells assessed as accumulation at G1 phase at 2 uM incubated for 24 hrs by propidium iodide /RNase staining based flow cytometry(Rvb =46.8 %); type: functional, MOLM-16
[24] = Induction of apoptosis in human MOLM16 cells assessed as early apoptotic cells at 1 uM incubated for 48 hrs by Annexin V and propidium iodide Staining based assay (reference value: 16.4 %); type: functional, MOLM-16
[25] = Induction of apoptosis in human MOLM16 cells assessed as necrotic cells at 2 uM incubated for 48 hrs by Annexin V and propidium iodide Staining based assay (reference value: 0.44 %); type: functional, MOLM-16
[26] = Induction of apoptosis in human MOLM16 cells assessed as viable cells at 5 uM incubated for 48 hrs by Annexin V and propidium iodide Staining based assay (reference value: 76.3 %); type: functional, MOLM-16; settings: read-out: Activity
[27] = Induction of cell cycle arrest in human MOLM16 cells assessed as accumulation at subG1 phase at 5 uM incubated for 24 hrs by propidium iodide /RNase staining based flow cytometry(Rvb =4.02 %); type: functional, MOLM-16
[28] = Induction of cell cycle arrest in human MOLM16 cells assessed as accumulation at G1 phase at 5 uM incubated for 24 hrs by propidium iodide /RNase staining based flow cytometry(Rvb =46.8 %); type: functional, MOLM-16

Phosphatidylinositol 4,5-bisphosphate 3-kinase catalytic subunit alpha isoform, sequence (P42336 whole entry, canonical isoform): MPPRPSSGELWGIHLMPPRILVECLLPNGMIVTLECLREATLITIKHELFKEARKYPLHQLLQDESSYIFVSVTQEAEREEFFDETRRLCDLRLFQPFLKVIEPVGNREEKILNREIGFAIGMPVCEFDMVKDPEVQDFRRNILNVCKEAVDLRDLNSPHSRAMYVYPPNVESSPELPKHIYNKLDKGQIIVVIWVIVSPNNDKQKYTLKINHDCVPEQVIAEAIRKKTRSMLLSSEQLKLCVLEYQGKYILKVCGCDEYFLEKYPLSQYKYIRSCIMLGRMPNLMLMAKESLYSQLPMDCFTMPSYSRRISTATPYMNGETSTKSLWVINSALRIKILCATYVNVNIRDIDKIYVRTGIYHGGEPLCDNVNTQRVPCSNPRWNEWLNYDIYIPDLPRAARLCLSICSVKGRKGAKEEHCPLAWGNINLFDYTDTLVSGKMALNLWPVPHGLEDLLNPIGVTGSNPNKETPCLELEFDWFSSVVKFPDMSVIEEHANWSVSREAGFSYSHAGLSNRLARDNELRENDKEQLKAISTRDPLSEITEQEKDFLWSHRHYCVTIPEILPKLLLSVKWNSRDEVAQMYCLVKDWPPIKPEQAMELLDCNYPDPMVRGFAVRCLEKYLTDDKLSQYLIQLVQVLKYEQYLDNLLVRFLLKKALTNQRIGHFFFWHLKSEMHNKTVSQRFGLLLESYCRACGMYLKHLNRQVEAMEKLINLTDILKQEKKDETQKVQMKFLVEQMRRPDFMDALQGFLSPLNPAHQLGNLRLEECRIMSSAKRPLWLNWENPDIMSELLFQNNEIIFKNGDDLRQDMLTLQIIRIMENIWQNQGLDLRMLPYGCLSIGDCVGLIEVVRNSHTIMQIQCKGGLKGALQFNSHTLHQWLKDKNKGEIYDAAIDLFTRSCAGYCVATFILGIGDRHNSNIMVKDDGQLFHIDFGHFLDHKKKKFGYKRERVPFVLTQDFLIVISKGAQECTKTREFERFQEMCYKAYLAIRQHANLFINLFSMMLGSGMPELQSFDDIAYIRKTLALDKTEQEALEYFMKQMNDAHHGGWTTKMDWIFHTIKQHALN
Phosphatidylinositol 4,5-bisphosphate 3-kinase catalytic subunit beta isoform, sequence (P42338 whole entry, canonical isoform): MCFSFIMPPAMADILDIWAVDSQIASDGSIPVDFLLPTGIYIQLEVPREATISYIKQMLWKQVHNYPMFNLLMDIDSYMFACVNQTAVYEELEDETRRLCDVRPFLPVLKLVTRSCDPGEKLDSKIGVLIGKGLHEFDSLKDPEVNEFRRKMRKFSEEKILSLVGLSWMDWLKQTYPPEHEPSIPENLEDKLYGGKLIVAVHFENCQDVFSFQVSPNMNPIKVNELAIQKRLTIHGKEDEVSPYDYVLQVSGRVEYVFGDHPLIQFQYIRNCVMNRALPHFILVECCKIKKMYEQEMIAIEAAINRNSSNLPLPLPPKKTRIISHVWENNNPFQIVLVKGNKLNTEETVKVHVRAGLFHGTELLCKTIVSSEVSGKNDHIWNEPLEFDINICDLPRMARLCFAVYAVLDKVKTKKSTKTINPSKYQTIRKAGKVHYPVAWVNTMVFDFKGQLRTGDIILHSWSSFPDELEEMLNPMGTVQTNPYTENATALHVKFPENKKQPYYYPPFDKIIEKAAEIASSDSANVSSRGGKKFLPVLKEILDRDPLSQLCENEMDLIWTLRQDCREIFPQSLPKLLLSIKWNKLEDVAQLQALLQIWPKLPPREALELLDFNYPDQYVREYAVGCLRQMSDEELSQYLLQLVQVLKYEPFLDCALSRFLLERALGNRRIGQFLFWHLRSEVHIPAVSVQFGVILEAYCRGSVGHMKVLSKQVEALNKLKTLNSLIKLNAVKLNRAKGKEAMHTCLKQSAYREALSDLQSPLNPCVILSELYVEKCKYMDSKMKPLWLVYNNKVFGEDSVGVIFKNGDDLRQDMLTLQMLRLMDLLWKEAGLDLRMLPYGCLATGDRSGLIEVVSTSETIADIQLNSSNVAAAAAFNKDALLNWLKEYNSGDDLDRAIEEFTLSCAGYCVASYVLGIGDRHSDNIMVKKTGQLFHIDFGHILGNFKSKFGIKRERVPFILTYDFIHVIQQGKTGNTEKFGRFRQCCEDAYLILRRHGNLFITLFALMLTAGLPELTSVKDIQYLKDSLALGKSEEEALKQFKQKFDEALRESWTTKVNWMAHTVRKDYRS
Phosphatidylinositol 4,5-bisphosphate 3-kinase catalytic subunit gamma isoform, sequence (P48736 whole entry, canonical isoform): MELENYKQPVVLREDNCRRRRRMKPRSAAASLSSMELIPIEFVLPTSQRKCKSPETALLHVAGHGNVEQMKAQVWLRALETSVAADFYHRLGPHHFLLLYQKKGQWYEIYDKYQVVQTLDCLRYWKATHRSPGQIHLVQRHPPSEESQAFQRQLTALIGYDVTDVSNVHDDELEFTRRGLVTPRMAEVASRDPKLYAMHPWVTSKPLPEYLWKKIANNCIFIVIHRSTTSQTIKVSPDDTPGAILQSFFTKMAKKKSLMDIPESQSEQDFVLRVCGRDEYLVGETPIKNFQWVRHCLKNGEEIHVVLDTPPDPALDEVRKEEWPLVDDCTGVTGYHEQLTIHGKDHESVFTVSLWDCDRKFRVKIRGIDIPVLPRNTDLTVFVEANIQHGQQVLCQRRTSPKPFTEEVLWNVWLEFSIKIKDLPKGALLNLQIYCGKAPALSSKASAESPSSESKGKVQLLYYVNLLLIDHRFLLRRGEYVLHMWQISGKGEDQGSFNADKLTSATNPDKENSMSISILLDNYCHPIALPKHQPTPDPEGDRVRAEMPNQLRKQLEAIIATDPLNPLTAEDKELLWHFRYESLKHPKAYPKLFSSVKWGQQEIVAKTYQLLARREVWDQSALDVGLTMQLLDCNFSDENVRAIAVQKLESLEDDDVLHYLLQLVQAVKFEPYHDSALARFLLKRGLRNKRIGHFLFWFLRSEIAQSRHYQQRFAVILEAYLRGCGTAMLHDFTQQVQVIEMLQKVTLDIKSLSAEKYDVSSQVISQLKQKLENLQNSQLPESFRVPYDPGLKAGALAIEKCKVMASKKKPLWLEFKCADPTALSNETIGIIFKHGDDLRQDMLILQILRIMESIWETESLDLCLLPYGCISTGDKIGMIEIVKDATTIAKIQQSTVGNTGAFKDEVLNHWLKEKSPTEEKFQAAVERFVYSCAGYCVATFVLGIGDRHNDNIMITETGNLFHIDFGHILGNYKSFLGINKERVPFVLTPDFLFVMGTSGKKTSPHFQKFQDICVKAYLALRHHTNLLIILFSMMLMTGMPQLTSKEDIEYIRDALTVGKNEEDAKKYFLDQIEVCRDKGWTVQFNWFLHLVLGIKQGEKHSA

Compound: O=S(=O)(Nc1cc(-c2cc3cn[nH]c3cn2)cnc1Cl)c1ccccc1
IC50 [1]: 527 nM

Compound: O=S(=O)(Nc1cc(-c2cnc3c(c2)CCN3)cnc1Cl)c1ccccc1
IC50 [1]: 123 nM

Compound: O=S(=O)(Nc1cc(-c2ccc3[nH]ncc3n2)cnc1Cl)c1ccccc1
IC50 [1]: 294 nM

Compound: O=S(=O)(Nc1cc(-c2cnc3occc3c2)cnc1Cl)c1ccccc1
IC50 [1]: 209 nM

Compound: O=S(=O)(Nc1cc(-c2ccc3c(c2)CCN3)cnc1Cl)c1ccccc1
IC50 [1]: 492 nM

Compound: O=S(=O)(Nc1cc(-c2cnc3scnc3c2)cnc1Cl)c1ccccc1
IC50 [1]: 204 nM

Compound: O=S(=O)(Nc1cc(-c2cnc3[nH]ccc3n2)cnc1Cl)c1ccccc1
IC50 [1]: 49 nM | IC50 [2]: 80 nM | IC50 [3]: 59 nM | IC50 [4]: 57 nM

Compound: O=S(=O)(Nc1cc(-c2ccc3occc3c2)cnc1Cl)c1ccccc1
IC50 [1]: 17 nM

Compound: O=S(=O)(Nc1cc(-c2cc3cc[nH]c3cn2)cnc1Cl)c1ccccc1
IC50 [1]: 1310 nM

Compound: CC[C@H](Nc1ncnc2[nH]cnc12)c1nc2cccc(F)c2c(=O)n1-c1ccccc1 [IDELALISIB]
Activity [5]: 14.8% | Activity [6]: 31.7% | Activity [7]: 13.6% | Activity [8]: 32.9% | Activity [9]: 7.95% | viability at 2 µM [10]: 73.2% | Activity [11]: 3.44% | Activity [12]: 1.14% | Activity [13]: 10.1% | Activity [14]: 18.2% | Activity [15]: 1.49% | Activity [16]: 9.19% | viability at 1 µM [17]: 77% | Activity [18]: 5.71% | Activity [19]: 12.4% | Activity [20]: 32.8% | Activity [21]: 13.9% | Activity [22]: 47.9% | Activity [23]: 48.4% | Activity [24]: 13.9% | Activity [25]: 0.5% | viability at 5 µM [26]: 74.6% | Activity [27]: 2.6% | Activity [28]: 49.6%

Second part, the compound after the results:

IC50 [1]: 334 nM
Compound: O=S(=O)(Nc1cc(-c2ccc3[nH]ccc3c2)cnc1Cl)c1ccccc1

IC50 [1]: 36 nM
Compound: O=S(=O)(Nc1cc(-c2ccc3[nH]ncc3c2)cnc1Cl)c1ccccc1

IC50 [1]: 604 nM
Compound: O=S(=O)(Nc1cc(-c2ccc3scnc3c2)cnc1Cl)c1ccccc1

IC50 [1]: 3060 nM
Compound: O=S(=O)(Nc1cc(-c2ccc3[nH]ccc3n2)cnc1Cl)c1ccccc1

IC50 [1]: 37 nM
Compound: O=S(=O)(Nc1cc(-c2ccc3ocnc3c2)cnc1Cl)c1ccccc1

IC50 [1]: 28 nM
Compound: O=S(=O)(Nc1cc(-c2ccc3[nH]cnc3c2)cnc1Cl)c1ccccc1

IC50 [1]: 15 nM
Compound: O=S(=O)(Nc1cc(-c2ccc3[nH]nnc3c2)cnc1Cl)c1ccccc1

IC50 [1]: 16 nM | IC50 [2]: 26 nM | IC50 [3]: 28 nM | IC50 [4]: 21 nM
Compound: O=S(=O)(Nc1cc(-c2cnc3[nH]cnc3c2)cnc1Cl)c1ccccc1

IC50 [1]: 859 nM
Compound: O=S(=O)(Nc1cc(-c2ccc3sccc3c2)cnc1Cl)c1ccccc1
